Measurements as given in publication PMC8533333, “Melatonin Analogues Potently Inhibit MAO-B and Protect PC12 Cells against Oxidative Stress” (Antioxidants, 2021).

How the values were obtained:
Nrf2 = assay: Nuclear translocation of Nrf2 in PC12 cells (Western blotting); assay type: cell-based, rat; settings: for time of peak Nrf2 protein expression: 10 μM; for nuclear translocation of Nrf2: PC12 nuclear fraction, Western blotting
Method: PC12 cells were seeded on 35 mm dishes at a density of 2 × 10^6 cells/dish and kept at 37 °C in humidified incubator for at least 24 h. Cells were treated with a series of concentrations of the tested compounds for 12 h or with the tested compounds (10 μM) for the indicated time points. Control cells were treated with serum-free media containing 0.3% DMSO instead. Total cell lysates were prepared according to the methods described previously, and stored at −20 °C until used. To evaluate the effects of the tested compounds on the nuclear translocation of Nrf2, nuclear fraction was separated from cytosolic fraction using NE-PER Nuclear and Cytoplasmic Extraction Reagents (Rockford, IL, USA), following the manufacturer’s directions. The protein concentrations were assessed using a BioRad DC protein assay kit (BioRad, Hercules, CA, USA). Equal amounts of proteins (20 µg) were resolved on 12% or 8% gels via sodium dodecyl sulfate-polyacrylamide gel electrophoresis and electrophoretically transferred onto nitrocellulose membrane (Whatman, Clifton, NJ, USA). Subsequently, immunoblotting was performed using anti-HO-1 or anti-Nrf2 antibodies, respectively, according to the procedures reported previously. Beta-actin, a highly conserved cytoskeletal protein, was used as a loading control of cell lysates to normalize the level of HO-1, while nuclear protein lamin B was used as a nuclear loading control to normalize the level of Nrf2 in the nuclear fraction. Finally, the immunoreactive bands corresponding to HO-1 or Nrf2 proteins were visualized using Clarity^TM Western ECL substrate (Bio-Rad, Hercules, CA, USA) using the BioRad ChemiDoc XRS imaging system (Bio-Rad, Hercules, CA, USA).
Nrf2 is a transcription factor involved in the expression of antioxidant defense enzymes in response to oxidative stress. Upon nuclear translocation, Nrf2 binds to antioxidant response elements (AREs), leading to the transcription of ARE genes such as HO-1 [111]. […] Nrf2 protein expression peaked after 6 h of treatment with each compound at 10 μM (Figure 15A,B). […] The nuclear translocation of Nrf2 was increased by 3n and 3r in concentration-dependent manners (Figure 16C,D).

[1] = tested on: LPO in rat brain homogenates; assay: Lipid peroxidation (LPO) induced by Fe2+ and L-ascorbic acid in rat forebrain homogenates; assay type: biochemical; settings: 100 μM; Fe2+ 10 µM and L-ascorbic acid 100 µM
Method: The effects of the investigated compounds on the LPO levels in rat forebrain homogenates were evaluated as previously described. Sprague–Dawley (SD) rats were obtained from Daehan Biolink (Chungbuk, Korea) and maintained in the animal facility with controlled temperature (22 ± 2 °C) and relative humidity (40–60%). All the experimental steps and protocols of the animal experiments were approved by the Institutional Animal Ethical Committee of Dongguk University (Approval Number: IACUC-2019-001-2). To initiate LPO reaction, 3–4 mg protein/mL diluent of SD rat forebrain homogenates in 20 mM Tris-HCl buffer (pH 7.4) and several concentrations of the tested compounds dissolved in DMSO were added to a reaction mixture with 10 µM Fe^2+ and 100 µM L-ascorbic acid and incubated for 60 min at 37 °C. After halting the reaction by adding 28% w/v trichloroacetic acid and 1% w/v TBA in succession, the solution was heated for 15 min at 100 °C, which was followed by centrifugation at 3000 rpm for 10 min at 4 °C to separate the precipitates. […] The percentage of inhibition was calculated by the following formula:Inhibition (%) = 100 × (1 − Abssample/Abscontrol) (Abscontrol, the absorbance of control without tested compounds; Abssample, the absorbance of sample with tested compounds). […]

| SMILES | time of peak Nrf2 protein expression (Nrf2) [h] | nuclear translocation of Nrf2 (Nrf2) | inhibition of lipid peroxide formation (LPO) [1] [%] |
| --- | --- | --- | --- |
| O=C(Nc1ccc2[nH]ccc2c1)c1cccc(Cl)c1 [3n, 3-Chloro-N-(1H-indol-5-yl)benzamide] | 6 | increased | 23.5 ± 1.7 |
| O=C(Nc1ccc2[nH]ccc2c1)c1cccc(Br)c1 [3r, 3-Bromo-N-(1H-indol-5-yl)benzamide] | 6 | increased | 44.4 ± 2.2 |
